The test system of one data set is MCF7 cells. The data set can be described thus: Cell proliferation assay (WST-1), MCF7. Format: cell-based, human. As to the method:
(§1) All cells were tested for mycoplasma using Real-Time PCR Mycoplasma Detection Kit (Akron Biotech, Boca Raton, FL).
(§2) All assays were performed in triplicate.
Background: Formazan colour is commonly taken as a measure of viable cells.

The next data set relates to DT22 cells. The data set is described as follows: Cell proliferation assay (WST-1), DT22. It counts as cell-based, human. As to the method: as §1, §2
The next data set deals with MDA-MB-231 cells. The data set is described as follows: Cell proliferation assay (WST-1), MDA-MB-231. Format: cell-based, human. As to the method: as §1, §2
A short description of data set [1]: Pharmacokinetic studies in mice after single s.c. or oral dose. The settings on record: for half-life / AUC(0-t): female, CD-1, mouse, plasma.
Protocol: For s.c. injection, each compound was dissolved in DMSO and then mixed with corn oil for a total injection volume of 100 μL (10% DSMO+90% corn oil) per mouse. For oral gavage, compounds were administered in a 200 μL formulation of 9/0.5/0.5/90 parts of PEG400/Tween80/Povidone/0.5% Carboxymethylcellulose. […] Compounds were quantified by LC-MS/MS at the University of Illinois Metabolomics Core Facility. The data were fitted to a non-compartment model.
The next data set deals with breast cancer cell lines. The data set can be described thus: Proliferation of breast cancer cell lines (panel, line not specified). It counts as cell-based, human. Particulars: cell line not specified or several lines. How it is done:
as §1, §2

Setting [2] is: Homo sapiens, MCF7, inhibition of cell proliferation, read-out: IC50 MCF7.
Where [3] appears, read: Homo sapiens, DT-22, inhibition of cell proliferation.
Where [4] appears, read: Homo sapiens, MDA-MB-231, inhibition of cell proliferation, read-out: IC50 MDA-MB-231.
Setting [5] is: inhibition of cell proliferation, read-out: IC50 MCF7.
Setting [6] is: Homo sapiens, MCF7, read-out: IC50 MCF7.
[7] abbreviates: Homo sapiens, MDA-MB-231, read-out: IC50 MDA-MB-231.
Where [8] appears, read: sc, 60 mg/kg, PK s.c. AUC0-48, mice, 60 mg/kg s.c.

Like-named read-outs stand apart in the source and are kept apart here.

By IC50 is commonly meant the midpoint of a concentration-inhibition curve. The term half-life denotes how long it takes for the measured level to halve. A higher half-life goes with slow loss. As a reminder, the AUC(0-t) is the area under the concentration-time curve up to a stated or last time point. A lower AUC(0-t) goes with less exposure.

`C[N+]1(CCCCCOc2ccc(C(=C3C4CC5CC(C4)CC3C5)c3ccc(OCCCCC[N+]4(C)CCCCC4)cc3)cc2)CCCCC1` [NB-88, 1,1′-((((((5r,7r)-adamantan-2-ylidene)methylene)bis(4,1-phenylene))bis(oxy))bis(pentane-5,1-diyl))bis(1-methylpiperidin-1-ium) diiodide]: the values for the IC50 in the data set on MCF7 cells (setting [2]), with DT22 cells (setting [3]) and in the data set with MDA-MB-231 cells (setting [4]) were 1.7 µM, 1.2 µM and 0.7 µM, respectively.
For `CC[N+](C)(CCO)CCCCCCOc1ccc(C(=C2C3CC4CC(C3)CC2C4)c2ccc(OCCCCCC[N+](C)(CC)CCO)cc2)cc1` (stereo not shown) [NB-134, 6,6′-(((((5r,7r)-adamantan-2-ylidene)methylene)bis(4,1-phenylene))bis(oxy))bis(N-ethyl-N-(2-hydroxyethyl)-N-methylhexan-1-aminium) diiodide], the IC50 stood at 1.1 µM with MCF7 cells (setting [2]) and 1.5 µM in the data set on DT22 cells (setting [3]).
For `CCN(CC)CCCCCCOc1ccc(C(=C2C3CC4CC(C3)CC2C4)c2ccc(O)cc2)cc1` [NB-41, 4-((E)-((5R,7R)-adamantan-2-ylidene)(4-((6-(diethylamino)hexyl)oxy)phenyl)methyl)phenol], the IC50 is 1.5 to 2 µM with MCF7 cells (setting [2]); 1.5 µM in the data set on MCF7 cells (setting [5]); 1.5 to 2 µM in the data set on DT22 cells (setting [3]); 2 µM in the data set on DT22 cells (inhibition of cell proliferation, read-out: IC50 DT-22). Besides, the half-life was 15.1 h in data set [1] (po, 40 mg/kg) and 22.5 h in data set [1] (sc, 40 mg/kg). Further, the AUC(0-t) in data set [1] (po, 40 mg/kg, PK p.o. AUC0-48, mice, 40 mg/kg p.o.) is 5.6 µM·h; in data set [1] (sc, 40 mg/kg, PK s.c. AUC0-48, mice, 40 mg/kg s.c.) it was 13.3 µM·h.
As for `C[N+]1(CCCCOc2ccc(C(=C3C4CC5CC(C4)CC3C5)c3ccc(OCCCC[N+]4(C)CCCCCC4)cc3)cc2)CCCCCC1` [NB-87, 1,1′-((((((5r,7r)-adamantan-2-ylidene)methylene)bis(4,1-phenylene))bis(oxy))bis(butane-4,1-diyl))bis(1-methylazepan-1-ium) diiodide], the IC50 in the data set on MCF7 cells (setting [2]) was determined as 1.7 µM; with DT22 cells (setting [3]), 1.5 µM; in the data set on MDA-MB-231 cells (setting [4]) it was 0.9 µM.
Regarding `c1cc(C(c2ccc(OCCCCCCN3CCCCC3)cc2)=C2[C@H]3C[C@@H]4C[C@@H](C[C@H]2C4)C3)ccc1OCCCCCCN1CCCCC1` [NB-70, 1,1′-((((((5r,7r)-Adamantan-2-ylidene)methylene)bis(4,1-phenylene))bis(oxy))bis(hexane-6,1-diyl))dipiperidine], the IC50 with MCF7 cells (setting [6]) turned out to be 0.7 µM; in the data set on MDA-MB-231 cells (setting [7]), 0.9 µM. Besides, the half-life in data set [1] (po, 60 mg/kg) was 90.9 h. The AUC(0-t) in data set [1] (po, 60 mg/kg, PK p.o. AUC0-48, mice, 60 mg/kg p.o.) amounted to 6 µM·h; in data set [1] (setting [8]) it was 10.2 µM·h.
For the molecule `C[N+]1(CCCCCCCCOc2ccc(C(=C3C4CC5CC(C4)CC3C5)c3ccc(OCCCCCCCC[N+]4(C)CCCCCC4)cc3)cc2)CCCCCC1.[I-].[I-]` [NB-81, 1,1′-((((((5r,7r)-adamantan-2-ylidene)methylene)bis(4,1-phenylene))bis(oxy))bis(octane-8,1-diyl))bis(1-methylazepan-1-ium) diiodide], the IC50 in the data set on MCF7 cells (setting [2]) was found to be 0.6 µM; in the data set on DT22 cells (setting [3]), 1.6 µM. In data set [1] (mice, 40 mg/kg s.c adm.), the “Outcome of animals in PK study” value is recorded as “Died at 40 mg/kg s.c adm”.
For the molecule `C[N+]1(CCCCCCOc2ccc(C(c3ccc(OCCCCCC[N+]4(C)CCCCC4)cc3)=C3C4C[C@H]5C[C@@H](C4)C[C@H]3C5)cc2)CCCCC1` [NB-71, 1,1′-((((((5r,7r)-adamantan-2-ylidene)methylene)bis(4,1-phenylene))bis(oxy))bis(hexane-6,1-diyl))bis(1-methylpiperidin-1-ium) diodide], the IC50 with MCF7 cells (setting [6]) is 1.1 µM; with DT22 cells (setting [3]), 0.8 µM; with MDA-MB-231 cells (setting [7]) it was 0.5 µM. The half-life is 25 to 40 h in data set [1] (sc) and 119 h in data set [1] (sc, 60 mg/kg). The AUC(0-t) in data set [1] (setting [8]) is 364 µM·h. In data set [1] (mice, oral, doses of FIGS. 6A-6B), the “Blood levels after oral administration” value is listed as “very low levels”. Further, the “Blood levels after s.c. injection” value in data set [1] (mice, s.c., doses of FIGS. 6A-6B) was “very high blood levels”.
Take `c1cc(C(=C2C3CC4CC(C3)CC2C4)c2ccc(OCCCCCCN3CCCCCC3)cc2)ccc1OCCCCCCN1CCCCCC1` [NB-72, 1,1′-((((((5r,7r)-Adamantan-2-ylidene)methylene)bis(4,1-phenylene))bis(oxy))bis(hexane-6,1-diyl))bis(azepane)]: the IC50 with MCF7 cells (setting [6]) and with DT22 cells (setting [3]) was 0.7 µM in each case.
As for `CCN(CC)CCOCCOCCOc1ccc(C(=C2C3CC4CC(C3)CC2C4)c2ccc(OCCOCCOCCN(CC)CC)cc2)cc1` [NB-53, 2,2′-(((((((((5r,7r)-adamantan-2-ylidene)methylene)bis(4,1-phenylene))bis(oxy))bis(ethane-2,1-diyl))bis(oxy))bis(ethane-2,1-diyl))bis(oxy))bis(N,N-diethylethan-1-amine)], the IC50 in the data set with MCF7 cells (setting [2]) was 3.5 µM; in the data set with MDA-MB-231 cells (setting [4]), less than 5 µM.
In the case of “6-(4-((Z)-((5S,7S)-adamantan-2-ylidene)(4-chlorophenyl)methyl)phenoxy)-N,N-diethylhexan-1-amine [NB-54]”, the IC50 in the data set on MCF7 cells (setting [5]) is 4 µM; in the data set with MDA-MB-231 cells (inhibition of cell proliferation, read-out: IC50 MDA-MB-231), 4 µM.
For `C[N+]1(CCCCOc2ccc(C(=C3C4CC5CC(C4)CC3C5)c3ccc(OCCCC[N+]4(C)CCCCC4)cc3)cc2)CCCCC1` [NB-86, 1-(4-(4-((E)-((5R,7R)-adamantan-2-ylidene)(4-(4-(1-metheyliumylpiperidin-1-ium-1-yl)butoxy)phenyl)methyl)phenoxy)butyl)-1-methylpiperidin-1-ium diiodide], the IC50 with MCF7 cells (setting [2]) was found to be 1.4 µM; in the data set on DT22 cells (setting [3]) it was 1.9 µM; in the data set with MDA-MB-231 cells (setting [4]), 1.1 µM.
As to `C[N+]1(CCCCCOc2ccc(C(=C3C4CC5CC(C4)CC3C5)c3ccc(OCCCCC[N+]4(C)CCCCCC4)cc3)cc2)CCCCCC1` [NB-89, 1,1′-((((((5r,7r)-adamantan-2-ylidene)methylene)bis(4,1-phenylene))bis(oxy))bis(pentane-5,1-diyl))bis(1-methylazepan-1-ium) diiodide], the IC50 in the data set on MCF7 cells (setting [2]) is 0.6 µM; in the data set on MCF7 cells (setting [5]), 0.7 µM; in the data set with DT22 cells (setting [3]) it was 1.1 µM; in the data set with MDA-MB-231 cells (setting [4]) it was 0.5 µM.
Regarding `CN1CCN(CCCCCCOc2ccc(C(=C3C4CC5CC(C4)CC3C5)c3ccc(OCCCCCCN4CCN(C)CC4)cc3)cc2)CC1` [NB-66, 4,4′-((((((5r,7r)-adamantan-2-ylidene)methylene)bis(4,1-phenylene))bis(oxy))bis(hexane-6,1-diyl))bis(1-methylpiperazine)], the IC50 in the data set on MCF7 cells (setting [2]) worked out at 0.8 µM. For the same molecule, the “IC50 for inhibition of proliferation of breast cancer cell lines” value with breast cancer cell lines is recorded as “submicromolar”. For the same molecule, the “PK p.o. AUC0-48” value in data set [1] (mice, 60 mg/kg p.o.) was “too low to measure”. Further, in data set [1] (mice, 60 mg/kg s.c.), the “PK s.c. AUC0-48” value was found to be 6.1 µM·h and the “PK s.c. t1/2” value was 45.6 h.
On to `c1cc(C(=C2C3CC4CC(C3)CC2C4)c2ccc(OCCCCCCCCN3CCCCCC3)cc2)ccc1OCCCCCCCCN1CCCCCC1` [NB-80, 1,1′-((((((5r,7r)-adamantan-2-ylidene)methylene)bis(4,1-phenylene))bis(oxy))bis(octane-8,1-diyl))bis(azepane)], for which the IC50 was 2.7 µM with MCF7 cells (setting [2]) and 3.4 µM with DT22 cells (setting [3]).

For the origin of these results see US12187662B2, “FOXM1 inhibitor compositions and methods of using the same” (The Board of Trustees of the University of Illinois, priority 2018, dated 2025).
